ChEMBL document CHEMBL1221401, “Antiproliferative compounds from Pongamiopsis pervilleana from the Madagascar Dry Forest” (J Nat Prod, 2010)

Tests used:
Format in all cases: functional, cell-based
A2780 = assay: Antiproliferative activity against human A2780 cells after 96 hrs by CellTiter-Glo luminescent cell viability assay; conditions: A2780, 96 h
BT-549 = assay: Antiproliferative activity against human BT549 cells after 96 hrs by CellTiter-Glo luminescent cell viability assay; conditions: BT-549, 96 h
DU-145 = assay: Antiproliferative activity against human DU145 cells after 96 hrs by CellTiter-Glo luminescent cell viability assay; conditions: DU-145, 96 h
NCI-H460 = assay: Antiproliferative activity against human NCI-H460 cells after 96 hrs by CellTiter-Glo luminescent cell viability assay; conditions: NCI-H460, 96 h
HCC 2998 = assay: Antiproliferative activity against human HCC2998 cells after 96 hrs by CellTiter-Glo luminescent cell viability assay; conditions: HCC 2998, 96 h

Row | IC50 (A2780) | SMILES | IC50 (BT-549) | IC50 (DU-145) | IC50 (NCI-H460) | IC50 (HCC 2998)
1 | 9.5 µM | COc1c(-c2ccc3c(c2)OCO3)c(=O)oc2c3c(ccc12)OC(C)(C)C=C3 [PONGAVILLEANINE] | – | – | – | –
2 | 26.5 µM | C=C(C)[C@H]1Cc2cc3c(cc2O1)OC[C@H]1c2cc4c(cc2O[C@@H]31)OCO4 [EMOROIDOCARPAN] | – | – | – | –
3 | > 54.4 µM | C=C(CO)[C@H]1Cc2cc3c(cc2O1)OC[C@H]1c2cc4c(cc2O[C@@H]31)OCO4 | – | – | – | –

Row | SMILES | IC50 (A2780) | IC50 (BT-549) | IC50 (DU-145) | IC50 (NCI-H460) | IC50 (HCC 2998)
4 | C=C(C)[C@H]1Cc2c(ccc3c2O[C@@H]2COc4cc(OC)c(OC)cc4[C@]2(O)C3=O)O1 [ROTENOLONE] | 0.95 µM | 1.6 µM | 2.7 µM | 2 µM | 2.9 µM
